The text below walks through data of ChEMBL document CHEMBL6134788, “Development of naphthalimide hydrazide derivatives as potent antibacterial agents against carbapenem-resistant A. baumannii” (RSC Med Chem, 2024).

Values after ≈ are worked out from the molar mass of the structure shown. Bounds are passed on as bounds.

Common to all, as to type: functional
Common to all, as to details: time 16-18 hrs, read-out: MIC100

One assay concerns Pseudomonas aeruginosa. Kind of assay: Antibacterial activity against Pseudomonas aeruginosa ATCC 27853 assessed as inhibition of bacterial growth incubated for 16 to 18 hrs by CLSI protocol based method.
The next assay has as its system Escherichia coli. Kind of assay: Antibacterial activity against Escherichia coli ATCC 25922 assessed as inhibition of bacterial growth incubated for 16 to 18 hrs by CLSI protocol based method.
In a further assay the test system is Acinetobacter baumannii. The assay is described as follows: Antibacterial activity against carbapenem-resistant Acinetobacter baumannii BAA 1605 assessed as inhibition of bacterial growth incubated for 16 to 18 hrs by CLSI protocol based method.
A further assay has as its system Staphylococcus aureus. Kind of assay: Antibacterial activity against Staphylococcus aureus ATCC 29213 assessed as inhibition of bacterial growth incubated for 16 to 18 hrs by CLSI protocol based method.
A further assay relates to Klebsiella pneumoniae. Kind of assay: Antibacterial activity against Klebsiella pneumoniae BAA 1705 assessed as inhibition of bacterial growth incubated for 16 to 18 hrs by CLSI protocol based method.

As to `N#Cc1ccc(NNC(=O)CCCN2C(=O)c3cccc4cccc(c34)C2=O)cc1`, the MIC was over 64 µg/mL with Pseudomonas aeruginosa; over 64 µg/mL in the assay on Escherichia coli; 2 µg/mL (≈ 5.02 µM) in the assay with Acinetobacter baumannii; over 64 µg/mL with Staphylococcus aureus; over 64 µg/mL with Klebsiella pneumoniae.

For `Cc1ccc(NNC(=O)CCN2C(=O)c3cccc4cccc(c34)C2=O)c(C)c1`, the MIC in the assay on Pseudomonas aeruginosa, with Escherichia coli, in the assay on Acinetobacter baumannii, in the assay with Staphylococcus aureus and in the assay with Klebsiella pneumoniae was over 64 µg/mL in each case.

With `N#Cc1ccc(NNC(=O)CN2C(=O)c3cccc4cccc(c34)C2=O)cc1`, the MIC is over 64 µg/mL in the assay on Pseudomonas aeruginosa; over 64 µg/mL in the assay on Escherichia coli; 4 µg/mL (≈ 10.8 µM) in the assay with Acinetobacter baumannii; over 64 µg/mL in the assay with Staphylococcus aureus; over 64 µg/mL in the assay with Klebsiella pneumoniae.

With `NCC[C@H](O)C(=O)N[C@@H]1C[C@H](N)[C@@H](O[C@H]2O[C@H](CN)[C@@H](O)[C@H](O)[C@H]2O)[C@H](O)[C@H]1O[C@H]1O[C@H](CO)[C@@H](O)[C@H](N)[C@H]1O` [AMIKACIN], in the assay on Acinetobacter baumannii, the MIC is 4 µg/mL (≈ 6.83 µM).

In the case of `Cc1ccc(NNC(=O)CCN2C(=O)c3cccc4cccc(c34)C2=O)cc1`, the MIC was over 64 µg/mL in the assay with Pseudomonas aeruginosa; over 64 µg/mL in the assay on Escherichia coli; 4 µg/mL (≈ 10.7 µM) with Acinetobacter baumannii; over 64 µg/mL in the assay on Staphylococcus aureus; over 64 µg/mL in the assay with Klebsiella pneumoniae.

In the case of `COc1ccc(NNC(=O)CCN2C(=O)c3cccc4cccc(c34)C2=O)cc1`, the MIC in the assay on Pseudomonas aeruginosa was over 64 µg/mL; in the assay on Escherichia coli, over 64 µg/mL; with Acinetobacter baumannii, 4 µg/mL (≈ 10.3 µM); in the assay on Staphylococcus aureus, over 64 µg/mL; in the assay with Klebsiella pneumoniae, over 64 µg/mL.

For the compound `O=C(CCN1C(=O)c2cccc3c(Br)ccc(c23)C1=O)NNc1ccc(Cl)cc1`, the MIC is over 64 µg/mL in the assay with Pseudomonas aeruginosa; over 64 µg/mL with Escherichia coli; 4 µg/mL (≈ 8.46 µM) in the assay on Acinetobacter baumannii; over 64 µg/mL with Staphylococcus aureus; over 64 µg/mL with Klebsiella pneumoniae.

As for `N#Cc1ccc(NNC(=O)CCCCCN2C(=O)c3cccc4cccc(c34)C2=O)cc1`, the MIC in the assay with Pseudomonas aeruginosa, with Escherichia coli, with Acinetobacter baumannii, in the assay with Staphylococcus aureus and in the assay with Klebsiella pneumoniae was over 64 µg/mL each time.

For `O=C(CCN1C(=O)c2cccc3cccc(c23)C1=O)NNc1cc(Cl)cc(Cl)c1`, the MIC with Pseudomonas aeruginosa, with Escherichia coli, with Acinetobacter baumannii, in the assay on Staphylococcus aureus and in the assay on Klebsiella pneumoniae was over 64 µg/mL throughout.

For `N#Cc1ccc(NNC(=O)[C@@H](Cc2ccccc2)N2C(=O)c3cccc4cccc(c34)C2=O)cc1`, the MIC with Pseudomonas aeruginosa was over 64 µg/mL; in the assay with Escherichia coli, over 64 µg/mL; in the assay with Acinetobacter baumannii, 16 µg/mL (≈ 34.7 µM); in the assay with Staphylococcus aureus, over 64 µg/mL; with Klebsiella pneumoniae, over 64 µg/mL.

In the case of `O=C(NNc1ccc(Cl)cc1)[C@@H](Cc1ccccc1)N1C(=O)c2cccc3cccc(c23)C1=O`, the MIC in the assay with Pseudomonas aeruginosa is over 64 µg/mL; in the assay with Escherichia coli, over 64 µg/mL; in the assay with Acinetobacter baumannii, 4 µg/mL (≈ 8.51 µM); in the assay on Staphylococcus aureus, over 64 µg/mL; in the assay on Klebsiella pneumoniae it was over 64 µg/mL.

As to `NC[C@H]1O[C@H](O[C@H]2[C@H](O)[C@@H](O[C@H]3O[C@H](CO)[C@@H](O)[C@H](N)[C@H]3O)[C@H](N)C[C@@H]2N)[C@H](N)C[C@@H]1O` [TOBRAMYCIN], in the assay on Acinetobacter baumannii, the MIC worked out at 4 µg/mL (≈ 8.56 µM).

On to `O=C(CCN1C(=O)c2cccc3cccc(c23)C1=O)NNc1cccc(Br)c1`, for which the MIC with Pseudomonas aeruginosa, in the assay with Escherichia coli, with Acinetobacter baumannii, in the assay on Staphylococcus aureus and with Klebsiella pneumoniae was over 64 µg/mL each time.

Turning to `O=C(NNc1ccccc1)[C@@H](Cc1ccccc1)N1C(=O)c2cccc3cccc(c23)C1=O`, the MIC in the assay with Pseudomonas aeruginosa was over 64 µg/mL; in the assay with Escherichia coli, over 64 µg/mL; in the assay on Acinetobacter baumannii it was 8 µg/mL (≈ 18.4 µM); in the assay on Staphylococcus aureus it was over 64 µg/mL; with Klebsiella pneumoniae it was over 64 µg/mL.

On to `O=C(NNc1ccc(Br)cc1)[C@@H](Cc1ccccc1)N1C(=O)c2cccc3cccc(c23)C1=O`, for which the MIC in the assay with Pseudomonas aeruginosa was over 64 µg/mL; in the assay with Escherichia coli it was over 64 µg/mL; with Acinetobacter baumannii, 8 µg/mL (≈ 15.6 µM); in the assay on Staphylococcus aureus, over 64 µg/mL; in the assay with Klebsiella pneumoniae it was over 64 µg/mL.

As for `O=C(CCN1C(=O)c2cccc3c(Br)ccc(c23)C1=O)NNc1ccc(Br)cc1`, the MIC is over 64 µg/mL with Pseudomonas aeruginosa; over 64 µg/mL in the assay on Escherichia coli; 4 µg/mL (≈ 7.73 µM) in the assay on Acinetobacter baumannii; over 64 µg/mL in the assay on Staphylococcus aureus; over 64 µg/mL in the assay with Klebsiella pneumoniae.

In the case of `N#Cc1ccc(NNC(=O)CCN2C(=O)c3cccc4c(Br)ccc(c34)C2=O)cc1`, the MIC with Pseudomonas aeruginosa is over 64 µg/mL; in the assay with Escherichia coli, over 64 µg/mL; with Acinetobacter baumannii it was 4 µg/mL (≈ 8.63 µM); in the assay with Staphylococcus aureus, over 64 µg/mL; in the assay with Klebsiella pneumoniae, over 64 µg/mL.

As to `O=C(CCN1C(=O)c2cccc3cccc(c23)C1=O)NNc1cccc(F)c1`, the MIC in the assay on Pseudomonas aeruginosa is over 64 µg/mL; in the assay on Escherichia coli it was over 64 µg/mL; in the assay with Acinetobacter baumannii it was 1 µg/mL (≈ 2.65 µM); with Staphylococcus aureus it was over 64 µg/mL; in the assay on Klebsiella pneumoniae, over 64 µg/mL.

Consider `O=C(CCN1C(=O)c2cccc3cccc(c23)C1=O)NNc1ccc(Cl)cc1Cl`, for which the MIC in the assay on Pseudomonas aeruginosa, in the assay on Escherichia coli, with Acinetobacter baumannii, with Staphylococcus aureus and with Klebsiella pneumoniae was over 64 µg/mL throughout.

Consider `O=C(CCN1C(=O)c2cccc3cccc(c23)C1=O)NNc1ccccc1Cl`, for which the MIC in the assay on Pseudomonas aeruginosa, in the assay with Escherichia coli, in the assay on Acinetobacter baumannii, in the assay with Staphylococcus aureus and in the assay with Klebsiella pneumoniae was over 64 µg/mL each time.

As to `O=C(CCCCCN1C(=O)c2cccc3cccc(c23)C1=O)NNc1ccccc1`, the MIC with Pseudomonas aeruginosa was over 64 µg/mL; in the assay with Escherichia coli it was over 64 µg/mL; in the assay on Acinetobacter baumannii, 8 µg/mL (≈ 19.9 µM); with Staphylococcus aureus, over 64 µg/mL; with Klebsiella pneumoniae, over 64 µg/mL.

`O=C(CCN1C(=O)c2cccc3cccc(c23)C1=O)NNc1ccccc1Br`: the MIC with Pseudomonas aeruginosa, in the assay with Escherichia coli, in the assay with Acinetobacter baumannii, in the assay on Staphylococcus aureus and in the assay on Klebsiella pneumoniae was over 64 µg/mL in each case.

Regarding `O=C(CCN1C(=O)c2cccc3cccc(c23)C1=O)NNc1ccc([N+](=O)[O-])cc1`, the MIC in the assay on Pseudomonas aeruginosa was over 64 µg/mL; in the assay with Escherichia coli, over 64 µg/mL; with Acinetobacter baumannii it was 4 µg/mL (≈ 9.89 µM); in the assay with Staphylococcus aureus, over 64 µg/mL; in the assay on Klebsiella pneumoniae, over 64 µg/mL.

As for `O=C(CCN1C(=O)c2cccc3cccc(c23)C1=O)NNc1cc(F)cc(F)c1`, the MIC with Pseudomonas aeruginosa, in the assay with Escherichia coli, with Acinetobacter baumannii, in the assay with Staphylococcus aureus and with Klebsiella pneumoniae was over 64 µg/mL throughout.

As to `O=C(CCCN1C(=O)c2cccc3cccc(c23)C1=O)NNc1ccccc1`, the MIC was over 64 µg/mL with Pseudomonas aeruginosa; over 64 µg/mL in the assay on Escherichia coli; 4 µg/mL (≈ 10.7 µM) in the assay with Acinetobacter baumannii; over 64 µg/mL in the assay on Staphylococcus aureus; over 64 µg/mL with Klebsiella pneumoniae.

As to `O=C(CCN1C(=O)c2cccc3cccc(c23)C1=O)NNc1ccccc1`, the MIC in the assay with Pseudomonas aeruginosa was over 64 µg/mL; with Escherichia coli it was over 64 µg/mL; with Acinetobacter baumannii, 8 µg/mL (≈ 22.3 µM); in the assay on Staphylococcus aureus it was over 64 µg/mL; with Klebsiella pneumoniae it was over 64 µg/mL.

For the compound `CO[C@H]1/C=C/O[C@@]2(C)Oc3c(C)c(O)c4c(O)c(c(/C=N/N5CCN(C)CC5)c(O)c4c3C2=O)NC(=O)/C(C)=C\C=C\[C@H](C)[C@H](O)[C@@H](C)[C@@H](O)[C@@H](C)[C@H](OC(C)=O)[C@@H]1C` [RIFAMPIN], in the assay with Acinetobacter baumannii, the MIC came out at 4 µg/mL (≈ 4.86 µM).
